Data from PubChem BioAssay AID256 (DTP/NCI, 2004).
Several values for one entry are separate records, joined by “and”; a condition that tells them apart may be missing. Equal entries are not always repeated. Inconclusive results and toxic doses are left out. How the source made its calls: active means survival T/C of 150% or more; inactive means T/C below 125% in these data.

Tested on: CD2F1 mice, L1210 leukemia ip, survival T/C
Assay: NCI In Vivo Anticancer Drug Screen. Data for tumor model L1210 Leukemia (intraperitoneal) in CD2F1 (CDF1) mice
Settings: higher = longer survival
In short: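 Antitumor effect is scored in animals hosting a serially transplanted tumor. Values compare compound-dosed animals against vehicle-only controls as a simple quotient.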

[1] = endpoint: mean survival time, dose: 100.0 mg/kg/injection, schedule: Q04DX003 (ip), vehicle: saline with Tween-80
[2] = endpoint: mean survival time, dose: 100.0 mg/kg/injection, schedule: Q04DX003 (ip), vehicle: saline
[3] = endpoint: mean survival time, dose: 200.0 mg/kg/injection, schedule: Q04DX003 (ip), vehicle: saline with Tween-80
[4] = endpoint: mean survival time, dose: 200.0 mg/kg/injection, schedule: Q04DX003 (ip), vehicle: saline
[5] = endpoint: mean survival time, dose: 400.0 mg/kg/injection, schedule: Q04DX003 (ip), vehicle: saline with Tween-80
[6] = endpoint: mean survival time, dose: 400.0 mg/kg/injection, schedule: Q04DX003 (ip), vehicle: saline
[7] = endpoint: mean survival time, dose: 100.0 mg/kg/injection, schedule: Q01DX009 (ip), vehicle: saline with Tween-80
[8] = endpoint: mean survival time, dose: 200.0 mg/kg/injection, schedule: Q01DX009 (ip), vehicle: saline with Tween-80
[9] = endpoint: mean survival time, dose: 400.0 mg/kg/injection, schedule: Q01DX009 (ip), vehicle: saline with Tween-80
[10] = endpoint: mean survival time, dose: 100.0 mg/kg/injection, schedule: Q01DX001 (ip), vehicle: saline
[11] = endpoint: mean survival time, dose: 200.0 mg/kg/injection, schedule: Q01DX001 (ip), vehicle: saline
[12] = endpoint: mean survival time, dose: 400.0 mg/kg/injection, schedule: Q01DX001 (ip), vehicle: saline
[13] = endpoint: mean survival time, dose: 50.0 mg/kg/injection, schedule: Q01DX009 (ip), vehicle: saline with Tween-80
[14] = endpoint: mean survival time, dose: 100.0 mg/kg/injection, schedule: Q01DX009 (ip), vehicle: Klucel (hydroxypropylcellulose) (HPC)
[15] = endpoint: mean survival time, dose: 200.0 mg/kg/injection, schedule: Q01DX009 (ip), vehicle: Klucel (hydroxypropylcellulose) (HPC)
[16] = endpoint: mean survival time, dose: 400.0 mg/kg/injection, schedule: Q01DX009 (ip), vehicle: Klucel (hydroxypropylcellulose) (HPC)

Measured: T/C

OCC1OC(OC2C(CO)OC(Sc3ccccc3)C(O)C2O)C(O)C(O)C1O (centres undefined)
inactive: [1] 97 % of control | [2] 103 % of control | [3] 95 % of control | [4] 103 % of control | [5] 97 % of control | [6] 95 % of control

CN(CC#CCOc1ccc(Br)cc1)c1ccccc1
inactive: [7] 103 % of control | [8] 100 % of control | [9] 97 % of control

O=S(=O)(Cc1ccccc1)CC(Br)CBr (centres undefined)
inactive: endpoint: mean survival time, dose: 100.0 mg/kg/injection, schedule: Q01DX001 (ip), vehicle: Klucel (hydroxypropylcellulose) (HPC) 91 % of control | endpoint: mean survival time, dose: 200.0 mg/kg/injection, schedule: Q01DX001 (ip), vehicle: Klucel (hydroxypropylcellulose) (HPC) 103 % of control | endpoint: mean survival time, dose: 400.0 mg/kg/injection, schedule: Q01DX001 (ip), vehicle: Klucel (hydroxypropylcellulose) (HPC) 106 % of control

COc1ccccc1NC(=O)NC1C(OC(C)=O)OC(COC(C)=O)C(OC(C)=O)C1OC(C)=O (centres undefined)
inactive: endpoint: mean survival time, dose: 12.5 mg/kg/injection, schedule: Q01DX009 (ip), vehicle: other 93 % of control | endpoint: mean survival time, dose: 25.0 mg/kg/injection, schedule: Q01DX009 (ip), vehicle: other 94 % of control | endpoint: mean survival time, dose: 50.0 mg/kg/injection, schedule: Q01DX009 (ip), vehicle: other 98 % of control | endpoint: mean survival time, dose: 100.0 mg/kg/injection, schedule: Q01DX009 (ip), vehicle: other 94 % of control | endpoint: mean survival time, dose: 200.0 mg/kg/injection, schedule: Q01DX009 (ip), vehicle: other 93 % of control

CCc1c(Cl)c(C)c(Cl)c(O)c1Cl
inactive: [1] 96 % of control | [3] 88 % of control

CN1CCSC1=S
inactive: endpoint: mean survival time, dose: 75.0 mg/kg/injection, schedule: Q01DX001 (ip), vehicle: other 92 % of control | endpoint: mean survival time, dose: 150.0 mg/kg/injection, schedule: Q01DX001 (ip), vehicle: other 96 % of control | endpoint: mean survival time, dose: 300.0 mg/kg/injection, schedule: Q01DX001 (ip), vehicle: other 104 % of control

Clc1cccc(-c2nc3ccccc3c3ccccc23)c1
inactive: [1] 93 % of control | [5] 98 % of control

N#Cc1cn(C2OC(CO)C(O)C2O)c2nc(NN)nc(N)c12 (centres undefined)
inactive: endpoint: mean survival time, dose: 1.56 mg/kg/injection, schedule: Q01DX005 (ip), vehicle: water 105 % of control | endpoint: mean survival time, dose: 3.13 mg/kg/injection, schedule: Q01DX005 (ip), vehicle: water 105 % of control | endpoint: mean survival time, dose: 6.25 mg/kg/injection, schedule: Q01DX005 (ip), vehicle: water 107 % of control | endpoint: mean survival time, dose: 12.5 mg/kg/injection, schedule: Q01DX005 (ip), vehicle: water 108 % of control | endpoint: mean survival time, dose: 25.0 mg/kg/injection, schedule: Q01DX005 (ip), vehicle: water 110 % of control | endpoint: mean survival time, dose: 50.0 mg/kg/injection, schedule: Q01DX005 (ip), vehicle: water 121 % of control | endpoint: mean survival time, dose: 100.0 mg/kg/injection, schedule: Q01DX005 (ip), vehicle: water 96 % of control

Nc1nc(N)c2nc(CN(CCO)c3ccc(C(=O)NC(CCC(=O)O)C(=O)O)cc3)cnc2n1 (centres undefined)
active: endpoint: mean survival time, dose: 2.0 mg/kg/injection, schedule: Q01DX009 (ip), vehicle: Klucel (hydroxypropylcellulose) (HPC) 162 % of control | endpoint: mean survival time, dose: 4.0 mg/kg/injection, schedule: Q01DX009 (ip), vehicle: Klucel (hydroxypropylcellulose) (HPC) 190 % of control | endpoint: mean survival time, dose: 8.0 mg/kg/injection, schedule: Q01DX009 (ip), vehicle: Klucel (hydroxypropylcellulose) (HPC) 171 % of control

CCN(CC)CC(=O)Nc1cccc2c1C(=O)c1c(c(O)c3ccccc3c1O)C2=O
inactive: endpoint: mean survival time, dose: 6.0 mg/kg/injection, schedule: Q04DX003 (ip), vehicle: saline with Tween-80 94 % of control | endpoint: mean survival time, dose: 12.0 mg/kg/injection, schedule: Q04DX003 (ip), vehicle: saline with Tween-80 100 % of control | endpoint: mean survival time, dose: 24.0 mg/kg/injection, schedule: Q04DX003 (ip), vehicle: saline with Tween-80 96 % of control | endpoint: mean survival time, dose: 48.0 mg/kg/injection, schedule: Q04DX003 (ip), vehicle: saline with Tween-80 98 % of control

NS(=O)(=O)c1ccc(NC(=O)/C=C/C(=O)O)cc1
inactive: [2] 101 % of control | [4] 97 % of control | [6] 97 % of control

COc1ccc2c(c1)C1(C)CCCC(C#N)C1CC2 (centres undefined)
inactive: [10] 101 % of control | [11] 96 % of control | [12] 94 % of control

CCn1cnc(-c2ccccc2)c1-c1ccccc1
inactive: endpoint: mean survival time, dose: 25.0 mg/kg/injection, schedule: Q01DX009 (ip), vehicle: saline with Tween-80 110 % of control | [13] 107 % of control | [7] 98 % of control | [1] 101 % of control

O=C1c2ccccc2C(=O)c2c1cn1c2Cc2ccccc2C1
inactive: endpoint: median survival time, dose: 9.0 mg/kg/injection, schedule: Q01DX005 (ip), vehicle: Klucel (hydroxypropylcellulose) (HPC) 106 % of control | endpoint: median survival time, dose: 9.37 mg/kg/injection, schedule: Q01DX005 (ip), vehicle: other 106 % of control and 107 % of control | endpoint: median survival time, dose: 12.5 mg/kg/injection, schedule: Q01DX005 (ip), vehicle: Klucel (hydroxypropylcellulose) (HPC) 110 % of control | endpoint: median survival time, dose: 15.0 mg/kg/injection, schedule: Q01DX005 (ip), vehicle: Klucel (hydroxypropylcellulose) (HPC) 109 % of control | endpoint: median survival time, dose: 18.75 mg/kg/injection, schedule: Q01DX005 (ip), vehicle: other 114 % of control and 103 % of control | endpoint: median survival time, dose: 25.0 mg/kg/injection, schedule: Q01DX005 (ip), vehicle: Klucel (hydroxypropylcellulose) (HPC) 107 % of control | endpoint: median survival time, dose: 37.5 mg/kg/injection, schedule: Q01DX005 (ip), vehicle: other 114 % of control and 111 % of control | endpoint: median survival time, dose: 41.66 mg/kg/injection, schedule: Q01DX005 (ip), vehicle: Klucel (hydroxypropylcellulose) (HPC) 114 % of control | endpoint: median survival time, dose: 50.0 mg/kg/injection, schedule: Q01DX005 (ip), vehicle: Klucel (hydroxypropylcellulose) (HPC) 108 % of control | endpoint: median survival time, dose: 69.44 mg/kg/injection, schedule: Q01DX005 (ip), vehicle: Klucel (hydroxypropylcellulose) (HPC) 106 % of control | endpoint: median survival time, dose: 75.0 mg/kg/injection, schedule: Q01DX005 (ip), vehicle: other 114 % of control and 98 % of control | endpoint: median survival time, dose: 100.0 mg/kg/injection, schedule: Q01DX005 (ip), vehicle: Klucel (hydroxypropylcellulose) (HPC) 122 % of control | endpoint: median survival time, dose: 150.0 mg/kg/injection, schedule: Q01DX005 (ip), vehicle: other 110 % of control | endpoint: median survival time, dose: 200.0 mg/kg/injection, schedule: Q01DX005 (ip), vehicle: Klucel (hydroxypropylcellulose) (HPC) 107 % of control

CC(C)(C)[Si](C)(C)Oc1ncc(F)c(O[Si](C)(C)C(C)(C)C)n1
inactive: endpoint: mean survival time, dose: 5.0 mg/kg/injection, schedule: Q01DX009 (ip), vehicle: distilled water + Tween-80 123 % of control | endpoint: mean survival time, dose: 10.0 mg/kg/injection, schedule: Q01DX009 (ip), vehicle: distilled water + Tween-80 113 % of control | endpoint: mean survival time, dose: 20.0 mg/kg/injection, schedule: Q01DX009 (ip), vehicle: distilled water + Tween-80 123 % of control

O=C(c1ccccc1)C1OC1c1ccc(Cl)cc1 (centres undefined)
inactive: endpoint: mean survival time, dose: 50.0 mg/kg/injection, schedule: Q04DX003 (ip), vehicle: saline with Tween-80 96 % of control | [1] 102 % of control | [3] 106 % of control

CC(CCC(=O)O)C1CCC2C3CCC4CCCCC4(C)C3CCC12C (centres undefined)
inactive: endpoint: mean survival time, dose: 100.0 mg/kg/injection, schedule: Q01DX001 (ip), vehicle: saline with Tween-80 98 % of control | endpoint: mean survival time, dose: 200.0 mg/kg/injection, schedule: Q01DX001 (ip), vehicle: saline with Tween-80 93 % of control | endpoint: mean survival time, dose: 400.0 mg/kg/injection, schedule: Q01DX001 (ip), vehicle: saline with Tween-80 92 % of control

CC1(CC(C)(C)c2ccccc2)OCCO1
inactive: endpoint: mean survival time, dose: 25.0 mg/kg/injection, schedule: Q01DX009 (ip), vehicle: Klucel (hydroxypropylcellulose) (HPC) 100 % of control | endpoint: mean survival time, dose: 50.0 mg/kg/injection, schedule: Q01DX009 (ip), vehicle: Klucel (hydroxypropylcellulose) (HPC) 98 % of control | [14] 100 % of control | [15] 102 % of control | [16] 100 % of control

CC1(C)CC(C)(c2ccc(O)cc2)c2ccccc2O1 (centres undefined)
inactive: [7] 90 % of control | [1] 92 % of control | [8] 92 % of control | [3] 92 % of control | [9] 91 % of control | [5] 90 % of control

N#CC(CC(=O)c1ccc(-c2ccccc2)cc1)c1ccccc1 (centres undefined)
inactive: [1] 91 % of control | [3] 91 % of control | [5] 95 % of control

CCCCC(CC)CO.[Ti] (centres undefined)
inactive: [13] 103 % of control | [7] 106 % of control | [8] 97 % of control

c1ccc(N/N=C2/CSCc3ccccc32)cc1
inactive: [14] 98 % of control | [15] 93 % of control | [16] 93 % of control

S=[As](c1ccccc1)(c1ccccc1)c1ccccc1
inactive: [10] 103 % of control | [11] 100 % of control | [12] 91 % of control
